Data published in US9540380B2, “Imidazotriazinone compounds” (Ironwood Pharmaceuticals, Inc., priority 2010, dated 2017).

Molecular target: T1, PDE9A2 (Homo sapiens, UniProt O76083)
T1 construct: purchased Reaction Biology Corporation, Malvern, Pa
Experiment: Phosphodiesterase Enzyme Screening Assay, PDE9A2 (Caliper LabChip mobility-shift)
Assay type: biochemical
Details: 10 concentrations, 4.0 μM cGMP substrate, 1 hour at R.T.; read-out: Band (PDE9A2 IC50)
Excerpt: (§1) Compounds of the invention were screened against PDE1A, PDE1B, PDE2A, PDE3A, PDE3B, PDE4A1A, PDE4B1, PDE4D3, PDE5A1, PDE6C, PDE7A, PDE8A1, PDE9A2, PDE10A2 AND PDE11A isoforms of the phosphodiesterase enzyme to determine activity and overall selectivity through comparative analysis. The assay generally consists of testing the compounds of the invention at 10 concentrations. Where 8-methoxy-IBMX and Zaprinast were used as reference inhibitors.
(§2) The phosphodiesterase enzyme isoforms were obtained from a commercial retailer (Reaction Biology Corporation, Malvern, Pa.) for use in the instant screening assay.
(§3) The analysis was completed using the Caliper LabChip 3000 and a 12-sipper LabChip. LabChip assays are separations-based, meaning that the product and substrate are electrophoretically separated, thereby minimizing interferences and yielding the highest data quality available on any screening platform. Z′ factors for both the EZ Reader and LC3000 enzymatic assays are routinely in the 0.8 to 0.9 range. High Z′ values, few false positives, few false negatives and analytical quality reproducibility are the reasons cited for the increasing reliance on the LabChip assays.
(§4) The off-chip incubation mobility-shift phosphodiesterase assay uses a microfluidic chip to measure the conversion of a fluorescent cyclic AMP substrate to a 5′-AMP product, or a cyclic GMP substrate to a 5′-GMP product. The reaction mixture, from a microtiter plate well, is introduced through a capillary sipper onto the chip, where the fluorescent substrate and product are separated by electrophoresis and detected via laser-induced fluorescence. […] The precision of microfluidics allows researchers to detect subtle interactions between drug candidates and therapeutic targets. The technology is able to detect both strong and weak inhibitors with high accuracy, and routinely identifies drug candidates that conventional techniques miss.
(§5) Reactions were carried out in 100 mM HEPES (pH 7.5), 5 mM MgCl2, 1 mM DTT, 0.003% Brij, 4.0 μM cGMP substrate. The reaction was started by addition of cGMP or cAMP and incubated for 1 hour at R.T. The reaction was terminated by the addition of stop buffer containing 100 mM HEPES (pH 7.5), 15 mM EDTA, 0.015% Brij-35, 5% DMSO. Cyclic AMP/GMP substrate and 5′-AMP/5′-GMP product were separated by charge using electrophoretic mobility shift. Product formed was compared to control wells to determine inhibition or enhancement of enzyme activity.
(§6) One or more reference compounds, depending on phosphodiesterase isoform, selected from 8-methoxy-IBMX, Zaprinast, Trequinsin, Pentoxifyline, Rolipram, and Vinpocetine, Dipyridamole, and BRL-50481 were run alongside client samples to ensure data quality. The resulting IC50 is compared against the historical average and must be within 3-fold of this average.
(§7) Data points were averages of quadruplicate wells and error bars represented the SEM for each point. IC50s were determined using GraphPad Prism Version 5.01 and the log (inhibitor) vs. response variable slope curve fit.

T1 sequence (O76083 1-533 isoform O76083-2): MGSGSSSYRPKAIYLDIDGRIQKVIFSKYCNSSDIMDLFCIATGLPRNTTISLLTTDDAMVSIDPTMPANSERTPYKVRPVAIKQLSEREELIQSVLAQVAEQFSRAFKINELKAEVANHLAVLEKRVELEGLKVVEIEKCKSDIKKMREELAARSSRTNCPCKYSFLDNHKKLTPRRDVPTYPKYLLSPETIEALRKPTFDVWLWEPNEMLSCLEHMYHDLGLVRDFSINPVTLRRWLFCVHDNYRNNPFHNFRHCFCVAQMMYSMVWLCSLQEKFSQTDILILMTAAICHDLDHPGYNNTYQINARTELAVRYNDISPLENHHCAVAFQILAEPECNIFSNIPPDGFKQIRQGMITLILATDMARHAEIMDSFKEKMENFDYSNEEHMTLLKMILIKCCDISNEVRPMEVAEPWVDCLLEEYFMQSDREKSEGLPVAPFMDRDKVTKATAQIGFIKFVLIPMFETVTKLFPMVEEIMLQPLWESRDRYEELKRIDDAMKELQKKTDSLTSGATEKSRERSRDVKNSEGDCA

| SMILES | IC50 [µM] |
| --- | --- |
| CCS(=O)(=O)N1CCC(c2ncc3c(=O)[nH]c([C@@H]4CN(Cc5ncccn5)C[C@H]4C)nn23)CC1 (single isomer, unassigned) [(+)-7-(1-(ethylsulfonyl)piperidin-4-yl)-2-((3,4-trans)-4-methyl-1-(pyrimidin-2-ylmethyl)pyrrolidin-3-yl)imidazo[5,1-f][1,2,4]triazin-4(3H)-one] | 1 to 10 |
| COc1cccc(CN2C[C@@H](C)[C@H](c3nn4c(C5CCOCC5)ncc4c(=O)[nH]3)C2)n1 (single isomer, unassigned) [(+)-2-((3,4-trans)-1-((6-methoxypyridin-2-yl)methyl)-4-methylpyrrolidin-3-yl)-7-(tetrahydro-2H-pyran-4-yl)imidazo[5,1-f][1,2,4]triazin-4(3H)-one] | < 1 |
| C[C@@H]1CN(Cc2ncccn2)C[C@H]1c1nn2c(C3CCOCC3)ncc2c(=O)[nH]1 (single isomer, unassigned) [(+)-2-((3,4-trans)-4-methyl-1-(pyrimidin-2-ylmethyl)pyrrolidin-3-yl)-7-(tetrahydro-2H-pyran-4-yl)imidazo[5,1-f][1,2,4]triazin-4(3H)-one] | < 1 |
| Cc1ccccc1-c1ncc2c(=O)[nH]c([C@@H]3CN(Cc4ncccn4)C[C@H]3C)nn12 (single isomer, unassigned) [(−)-2-((3,4-trans)-4-methyl-1-(pyrimidin-2-ylmethyl)pyrrolidin-3-yl)-7-(o-tolyl)imidazo[5,1-f][1,2,4]triazin-4(3H)-one] | 1 to 10 |
| C[C@@H]1CN(Cc2ccc3nccn3n2)C[C@H]1c1nn2c(C3CCOCC3)ncc2c(=O)[nH]1 (single isomer, unassigned) [(−)-2-((3,4-trans)-1-(imidazo[1,2-b]pyridazin-6-ylmethyl)-4-methylpyrrolidin-3-yl)-7-(tetrahydro-2H-pyran-4-yl)imidazo[5,1-f][1,2,4]triazin-4(3H)-one] | < 1 |
| C[C@@H]1CN(Cc2cn3ncccc3n2)C[C@H]1c1nn2c(C3CCOCC3)ncc2c(=O)[nH]1 (single isomer, unassigned) [(−)-2-((3,4-trans)-1-(imidazo[1,2-b]pyridazin-2-ylmethyl)-4-] [(−)-2-((3,4-trans)-1-(imidazo[1,2-b]pyridazin-2-ylmethyl)-4-methylpyrrolidin-3-yl)-7-(tetrahydro-2H-pyran-4-yl)imidazo[5,1-f][1,2,4]triazin-4(3H)-one] | < 1 |
| CC1CN(Cc2ccccc2)CC1c1nn2c(C34CC5CC(CC(C5)C3)C4)ncc2c(=O)[nH]1 (single isomer, unassigned; (-)) | > 10 |
| Cc1ccc(Cl)cc1-c1ncc2c(=O)[nH]c([C@@H]3CN(Cc4ccccc4)C[C@H]3C)nn12 (single isomer, unassigned) [(+)-2-((3,4-trans)-1-benzyl-4-methylpyrrolidin-3-yl)-7-(5-chloro-2-methylphenyl)imidazo[5,1-f][1,2,4]triazin-4(3H)-one] | < 1 |
| CC1CN(Cc2ncccn2)CC1c1nn2c(C34CC5CC(CC(C5)C3)C4)ncc2c(=O)[nH]1 (single isomer, unassigned; (+)) | < 1 |
| C[C@@H]1CN(Cc2ccc3nccn3n2)C[C@H]1c1nn2c(C3CCOCC3)ncc2c(=O)[nH]1 (single isomer, unassigned) [(+)-2-((3,4-trans)-1-(imidazo[1,2-b]pyridazin-6-ylmethyl)-4-methylpyrrolidin-3-yl)-7-(tetrahydro-2H-pyran-4-yl)imidazo[5,1-f][1,2,4]triazin-4(3H)-one] | < 1 |

Second part, the molecule after the results:

| IC50 [µM] | SMILES |
| --- | --- |
| < 1 | C[C@@H]1CN(Cc2ccccn2)C[C@H]1c1nn2c(C3CCOCC3)ncc2c(=O)[nH]1 (single isomer, unassigned) [(+)-2-((3,4-trans)-4-methyl-1-(pyridin-2-ylmethyl)pyrrolidin-3-yl)-7-(tetrahydro-2H-pyran-4-yl)imidazo[5,1-f][1,2,4]triazin-4(3H)-one] |
| < 1 | C[C@@H]1CN(Cc2ccc3ccccc3n2)C[C@H]1c1nn2c(C3CCOCC3)ncc2c(=O)[nH]1 (single isomer, unassigned) [(−)-2-((3,4-trans)-4-methyl-1-(quinolin-2-ylmethyl)pyrrolidi] [(−)-2-((3,4-trans)-4-methyl-1-(quinolin-2-ylmethyl)pyrrolidin-3-yl)-7-(tetrahydro-2H-pyran-4-yl)imidazo[5,1-f][1,2,4]triazin-4(3H)-one] |
| 1 to 10 | CC(=O)N1CCC(c2ncc3c(=O)[nH]c([C@@H]4CN(Cc5ncccn5)C[C@H]4C)nn23)CC1 (single isomer, unassigned) [(+)-7-(1-acetylpiperidin-4-yl)-2-((3,4-trans)-4-methyl-1-(pyrimidin-2-ylmethyl)pyrrolidin-3-yl)imidazo[5,1-f][1,2,4]triazin-4(3H)-one] |
| < 1 | CC(=O)N1CCC(c2ncc3c(=O)[nH]c([C@@H]4CN(Cc5ccccc5)C[C@H]4C)nn23)CC1 (single isomer, unassigned) [(+)-7-(1-acetylpiperidin-4-yl)-2-((3,4-trans)-1-benzyl-4-methylpyrrolidin-3-yl)imidazo[5,1-f][1,2,4]triazin-4(3H)-one] |
| > 10 | CCS(=O)(=O)N1CCC(c2ncc3c(=O)[nH]c([C@@H]4CN(Cc5ncccn5)C[C@H]4C)nn23)CC1 (single isomer, unassigned) [(−)-7-(1-(ethylsulfonyl)piperidin-4-yl)-2-((3,4-trans)-4-methyl-1-(pyrimidin-2-ylmethyl)pyrrolidin-3-yl)imidazo[5,1-f][1,2,4]triazin-4(3H)-one] |
| < 1 | C[C@@H]1CN(Cc2ccccc2F)C[C@H]1c1nn2c(C3CCOCC3)ncc2c(=O)[nH]1 (single isomer, unassigned) [(+)-2-((3,4-trans)-1-(2-fluorobenzyl)-4-methylpyrrolidin-3-yl)-7-(tetrahydro-2H-pyran-4-yl)imidazo[5,1-f][1,2,4]triazin-4(3H)-one] |
| < 1 | C[C@@H]1CN(Cc2cccc(F)c2)C[C@H]1c1nn2c(C3CCOCC3)ncc2c(=O)[nH]1 (single isomer, unassigned) [(−)-2-((3,4-trans)-1-(3-fluorobenzyl)-4-methylpyrrolidin-3-yl)-7-(tetrahydro-2H-pyran-4-yl)imidazo[5,1-f][1,2,4]triazin-4(3H)-one] |
| > 10 | CC(=O)N1CCC(c2ncc3c(=O)[nH]c([C@@H]4CN(Cc5ncccn5)C[C@H]4C)nn23)CC1 (single isomer, unassigned) [(−)-7-(1-acetylpiperidin-4-yl)-2-((3,4-trans)-4-methyl-1-(pyrimidin-2-ylmethyl)pyrrolidin-3-yl)imidazo[5,1-f][1,2,4]triazin-4(3H)-one] |
| > 10 | CC(=O)N1CCC(c2ncc3c(=O)[nH]c([C@@H]4CN(Cc5ccccc5)C[C@H]4C)nn23)CC1 (single isomer, unassigned) [(−)-7-(1-acetylpiperidin-4-yl)-2-((3,4-trans)-1-benzyl-4-methylpyrrolidin-3-yl)imidazo[5,1-f][1,2,4]triazin-4(3H)-one] |
| < 1 | CC1CN([C@@H](C)c2ccccc2)CC1c1nn2c(C3CCOCC3)ncc2c(=O)[nH]1 (single isomer, unassigned; (+)) |

Molecular target: T2, PDE1B (Homo sapiens, UniProt Q01064)
T2 construct: purchased Reaction Biology Corporation, Malvern, Pa
Experiment: Phosphodiesterase Enzyme Screening Assay, PDE1B (selectivity versus PDE9A2)
Assay type: biochemical
Details: ratio of IC50 values; value greater than 1 indicates greater selectivity for PDE9A2
Excerpt: as §1, §2, §3, §4, §5, §6, §7

T2 sequence (Q01064 whole entry): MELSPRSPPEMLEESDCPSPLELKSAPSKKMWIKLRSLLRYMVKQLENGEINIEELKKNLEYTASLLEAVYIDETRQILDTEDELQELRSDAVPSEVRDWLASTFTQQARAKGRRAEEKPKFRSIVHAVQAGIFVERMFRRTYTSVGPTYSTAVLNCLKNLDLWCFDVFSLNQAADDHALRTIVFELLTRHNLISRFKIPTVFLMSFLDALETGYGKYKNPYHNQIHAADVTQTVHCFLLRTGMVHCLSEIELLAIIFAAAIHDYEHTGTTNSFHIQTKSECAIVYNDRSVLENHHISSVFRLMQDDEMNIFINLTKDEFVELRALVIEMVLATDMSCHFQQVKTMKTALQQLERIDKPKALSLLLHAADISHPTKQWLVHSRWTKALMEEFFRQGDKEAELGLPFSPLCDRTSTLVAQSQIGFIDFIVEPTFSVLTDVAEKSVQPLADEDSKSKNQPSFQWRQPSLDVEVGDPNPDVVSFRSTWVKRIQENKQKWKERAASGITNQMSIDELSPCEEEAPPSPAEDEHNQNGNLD

| SMILES | PDE1B selectivity (versus PDE9A2) |
| --- | --- |
| C[C@@H]1CN(Cc2ccc3ccccc3n2)C[C@H]1c1nn2c(C3CCOCC3)ncc2c(=O)[nH]1 (single isomer, unassigned) [(+)-2-((3,4-trans)-4-methyl-1-(quinolin-2-ylmethyl)pyrrolidi] [(+)-2-((3,4-trans)-4-methyl-1-(quinolin-2-ylmethyl)pyrrolidin-3-yl)-7-(tetrahydro-2H-pyran-4-yl)imidazo[5,1-f][1,2,4]triazin-4(3H)-one] | 1400 |
| CC1CN(Cc2ccccc2)CC1c1nn2c(C3CCCOC3)ncc2c(=O)[nH]1 (single isomer, unassigned) [2-((3,4-trans)-1-benzyl-4-methylpyrrolidin-3-yl)-7-(tetrahyd] [2-((3,4-trans)-1-benzyl-4-methylpyrrolidin-3-yl)-7-(tetrahydro-2H-pyran-3-yl)imidazo[5,1-f][1,2,4]triazin-4(3H)-one] | 38 |

Molecular target: T3, PDE1A (Homo sapiens, UniProt P54750)
T3 construct: purchased Reaction Biology Corporation, Malvern, Pa
Experiment: Phosphodiesterase Enzyme Screening Assay, PDE1A (selectivity versus PDE9A2)
Assay type: biochemical
Details: ratio of IC50 values; value greater than 1 indicates greater selectivity for PDE9A2
Excerpt: as §1, §2, §3, §4, §5, §6, §7

T3 sequence (P54750 whole entry): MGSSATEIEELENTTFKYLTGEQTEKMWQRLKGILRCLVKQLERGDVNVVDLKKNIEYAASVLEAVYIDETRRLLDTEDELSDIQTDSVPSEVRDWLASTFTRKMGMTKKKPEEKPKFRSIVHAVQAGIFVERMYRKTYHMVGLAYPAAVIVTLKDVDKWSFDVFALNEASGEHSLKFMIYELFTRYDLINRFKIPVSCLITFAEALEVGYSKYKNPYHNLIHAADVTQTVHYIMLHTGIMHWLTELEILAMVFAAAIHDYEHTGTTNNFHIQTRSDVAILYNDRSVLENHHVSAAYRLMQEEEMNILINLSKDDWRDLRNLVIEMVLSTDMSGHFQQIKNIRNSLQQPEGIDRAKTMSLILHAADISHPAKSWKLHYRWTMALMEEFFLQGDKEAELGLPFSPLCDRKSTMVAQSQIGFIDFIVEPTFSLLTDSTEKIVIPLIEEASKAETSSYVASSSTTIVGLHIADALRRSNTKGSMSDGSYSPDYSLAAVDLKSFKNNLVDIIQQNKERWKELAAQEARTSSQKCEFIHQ

| SMILES | PDE1A selectivity (versus PDE9A2) |
| --- | --- |
| C[C@@H]1CN(Cc2ccc3ccccc3n2)C[C@H]1c1nn2c(C3CCOCC3)ncc2c(=O)[nH]1 (single isomer, unassigned) [(+)-2-((3,4-trans)-4-methyl-1-(quinolin-2-ylmethyl)pyrrolidi] [(+)-2-((3,4-trans)-4-methyl-1-(quinolin-2-ylmethyl)pyrrolidin-3-yl)-7-(tetrahydro-2H-pyran-4-yl)imidazo[5,1-f][1,2,4]triazin-4(3H)-one] | 621 |
| CC1CN(Cc2ccccc2)CC1c1nn2c(C3CCCOC3)ncc2c(=O)[nH]1 (single isomer, unassigned) [2-((3,4-trans)-1-benzyl-4-methylpyrrolidin-3-yl)-7-(tetrahyd] [2-((3,4-trans)-1-benzyl-4-methylpyrrolidin-3-yl)-7-(tetrahydro-2H-pyran-3-yl)imidazo[5,1-f][1,2,4]triazin-4(3H)-one] | 28 |
